Test results reported in patent US12466849B2, “Anti-viral and anti-tumoral compounds” (YEDA RESEARCH AND DEVELOPMENT CO. LTD, priority 2020, dated 2025).

Legend:
JC virus (JCV) [1] = assay: Secondary JCV assay (qPCR), COS7 cells; details: secondary JCV assay, COS7 cells; for EC50 / EC90: 7 days, qPCR, test drug concentration 0.001-100 μM; for Activity: class by SI50
HCMV AD169 = assay: HCMV plaque reduction assay, MRC-5 cells, strain AD169; assay type: cell-based, Human cytomegalovirus; details: hCMV AD169, MRC5 cells, plaque assay, 6-days duration
[2] = tested on: BK virus (BKV), Gardner strain
[3] = tested on: Human cytomegalovirus (HCMV), strain AD169; details: for EC50 / EC90: drug concentration 0.048-150 μM
JC virus (JCV) [4] = tested on: JC virus (JCV)
HFF cells = assay: Cell proliferation assay, human foreskin fibroblast (HFF) cells; assay type: cell-based; details: 72 h, cell number
[5] = biological target: T1, Inosine-5′-Monophosphate Dehydrogenase 2 (IMPDH2) (Homo sapiens, UniProt P12268); assay: IMPDH inhibitor screening assay (BioVision kit); assay type: biochemical; details: IMPDH activity, colorimetric OD 450 nm
T1 construct: purchased BioVision (California, USA)

[6] = biological target: mitochondrial DNA polymerase (POLG1) (Homo sapiens, UniProt P54098); assay: Inhibition of mitochondrial DNA polymerase (POLG1)
[7] = biological target: T2, SARS-Cov2 RdRp (nsp12-nsp7-nsp8) (Severe acute respiratory syndrome coronavirus 2, UniProt P0DTD1); assay type: biochemical; details: after addition of GTP and CTP (third and fourth nucleotides)
[8] = biological target: T2, SARS-Cov2 RdRp (nsp12-nsp7-nsp8); assay type: biochemical; details: primer extension; analog at 100 uM, printed 100 mM
TCRV [9] = tested on: TCRV
dengue virus-2 (DV-2) [10] = assay: microbe, parasite or virus in culture; details: Huh-7
Powassan virus (POWV) [11] = assay: microbe, parasite or virus in culture; details: BHK-21
SARS-CoV-2 [12] = assay: microbe, parasite or virus in culture; details: Severe acute respiratory syndrome coronavirus 2, Vero 76
[13] = tested on: Rift Valley fever virus (RVFV); assay: microbe, parasite or virus in culture; details: Vero 76
[14] = tested on: Venezuelan equine encephalitis virus (VEEV); assay: microbe, parasite or virus in culture; details: Vero 76
Zika virus [15] = assay: microbe, parasite or virus in culture; details: Vero 76
SARS-CoV-2 [16] = details: SARS-CoV-2; SI = CC50/EC50
Zika virus [17] = tested on: Zika virus
poliovirus-1 (POV-1) [18] = assay: organism not typed; details: Vero 76
enterovirus-68 (EV-68) [19] = assay: organism not typed; details: RD
in vitro [20] = details: Syrian hamster
[21] = tested on: Japanese encephalitis virus (JEV)
dengue virus-2 (DV-2) [22] = details: DV-2; SI = CC50/EC50
Powassan virus (POWV) [23] = details: POWV; SI = CC50/EC50
Influenza B [24] = assay: microbe, parasite or virus in culture; details: MDCK
Influenza B [25] = tested on: Influenza B
poliovirus-1 (POV-1) [26] = tested on: poliovirus-1 (POV-1)
[27] = tested on: Japanese encephalitis virus (JEV); assay: microbe, parasite or virus in culture; details: Vero 76
RSV [28] = tested on: RSV
[29] = tested on: Venezuelan equine encephalitis virus (VEEV)
West Nile virus (WNV) [30] = tested on: West Nile virus (WNV)
Yellow fever virus (YFV) [31] = tested on: Yellow fever virus (YFV)
influenza A(H1N1) [32] = tested on: influenza A(H1N1)
enterovirus-68 (EV-68) [33] = tested on: enterovirus-68 (EV-68)
West Nile virus (WNV) [34] = assay: microbe, parasite or virus in culture; details: Vero 76
TCRV [35] = assay: microbe, parasite or virus in culture; details: Mammarenavirus tacaribeense, Vero C1008
influenza A(H5N1) [36] = tested on: influenza A(H5N1)
adenovirus-5 (Ad5) [37] = assay: organism not typed; details: A549
in vitro [38] = details: human
SARS-CoV [39] = tested on: SARS-CoV
[40] = tested on: Rift Valley fever virus (RVFV)
in vitro [41] = details: African green monkey
SARS-CoV [42] = assay: microbe, parasite or virus in culture; details: Severe acute respiratory syndrome coronavirus, Vero 76
influenza A(H5N1) [43] = assay: microbe, parasite or virus in culture; details: H5N1, MDCK
RSV [44] = assay: microbe, parasite or virus in culture; details: human respiratory syncytial virus, MA104
influenza A(H1N1) [45] = assay: microbe, parasite or virus in culture; details: H1N1, MDCK
Yellow fever virus (YFV) [46] = assay: microbe, parasite or virus in culture; details: Huh-7
adenovirus-5 (Ad5) [47] = tested on: adenovirus-5 (Ad5)
[48] = Vero 76 cells without virus, test compounds

Sequence of mitochondrial DNA polymerase (POLG1) (P54098 whole entry): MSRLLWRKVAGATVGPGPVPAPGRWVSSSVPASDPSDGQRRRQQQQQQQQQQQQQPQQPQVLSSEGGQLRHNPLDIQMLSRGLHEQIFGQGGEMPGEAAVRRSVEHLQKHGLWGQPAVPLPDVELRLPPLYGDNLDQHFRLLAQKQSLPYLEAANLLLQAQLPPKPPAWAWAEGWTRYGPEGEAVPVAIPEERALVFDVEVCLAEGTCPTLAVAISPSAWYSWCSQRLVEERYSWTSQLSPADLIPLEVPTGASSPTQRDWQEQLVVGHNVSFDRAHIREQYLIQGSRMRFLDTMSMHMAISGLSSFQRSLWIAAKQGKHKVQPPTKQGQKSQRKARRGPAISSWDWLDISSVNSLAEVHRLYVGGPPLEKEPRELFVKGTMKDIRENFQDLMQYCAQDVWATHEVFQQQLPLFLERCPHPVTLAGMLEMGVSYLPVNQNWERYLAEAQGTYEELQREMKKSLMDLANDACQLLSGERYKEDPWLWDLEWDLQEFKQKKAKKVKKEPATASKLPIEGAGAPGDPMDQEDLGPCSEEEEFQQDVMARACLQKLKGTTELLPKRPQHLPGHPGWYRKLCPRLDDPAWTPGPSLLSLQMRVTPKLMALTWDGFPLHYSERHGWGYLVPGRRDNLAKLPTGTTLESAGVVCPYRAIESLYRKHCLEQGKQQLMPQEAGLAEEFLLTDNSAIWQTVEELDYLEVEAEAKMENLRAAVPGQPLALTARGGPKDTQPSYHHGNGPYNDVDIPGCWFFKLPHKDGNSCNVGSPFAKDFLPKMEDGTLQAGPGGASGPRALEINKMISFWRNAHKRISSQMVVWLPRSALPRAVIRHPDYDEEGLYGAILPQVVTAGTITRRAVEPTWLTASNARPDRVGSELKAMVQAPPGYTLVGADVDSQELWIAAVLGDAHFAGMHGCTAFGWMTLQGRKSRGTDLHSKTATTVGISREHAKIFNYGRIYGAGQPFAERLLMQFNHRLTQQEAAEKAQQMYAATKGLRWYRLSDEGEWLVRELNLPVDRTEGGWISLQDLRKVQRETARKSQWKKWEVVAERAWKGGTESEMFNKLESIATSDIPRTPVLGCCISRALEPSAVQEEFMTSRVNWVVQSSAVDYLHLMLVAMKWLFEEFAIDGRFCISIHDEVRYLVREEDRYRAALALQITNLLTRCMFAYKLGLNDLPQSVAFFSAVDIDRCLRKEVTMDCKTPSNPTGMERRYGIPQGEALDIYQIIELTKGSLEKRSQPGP

CCC(CC)COC(=O)[C@H](C)N[P@](=O)(OCC1=CC(O)C(n2ccc(=O)[nH]c2=O)O1)Oc1ccccc1 (stereo partly drawn) [AB23031]
EC50 (JC virus (JCV) [1]): 93.8 µM
EC90 (JC virus (JCV) [1]): > 100 µM
Activity (JC virus (JCV) [1]): NA (NA (Not Active) SI50 = 0-3.9)
EC50 (HCMV AD169): > 100 µM
Activity [2]: HI (key: NA (Not Active) SI50 = 0-3.9; LO (Slightly Active) SI50 = 4-9.9; MOD (Moderately Active) SI50 = 10-19.9; HI (Highly Active) SI50 = ≥20)
CC50 [2]: > 150 µM
EC50 [2]: 5.12 µM
EC90 [2]: > 150 µM
activity against BK virus (in words) [2]: highly active
Activity [3]: HI (key: NA (Not Active) SI50 = 0-3.9; LO (Slightly Active) SI50 = 4-9.9; MOD (Moderately Active) SI50 = 10-19.9; HI (Highly Active) SI50 = ≥20)
CC50 [3]: > 150 µM
activity against hCMV (in words) [3]: highly active
EC50 [3]: 0.15 µM
EC90 [3]: > 150 µM
CC50 (MRC-5 cells): > 100 µM
CC50 (MOLT-3 cells): 55.4 µM
CC50 (JC virus (JCV) [4]): > 100 µM
IC50 (HFF cells): > 100 µM

NC(=O)c1ncn([C@@H]2O[C@H](COP(=O)(O)O)[C@@H](O)[C@H]2O)n1 [RMP, Ribavirin 5′-monophosphate]
IC50 [5]: 2.6 ± 1.8 µM

O=c1ccn(C2OC(COP(=O)(O)OP(=O)(O)OP(=O)(O)O)=CC2O)c(=O)[nH]1 (stereo not drawn) [ddhUTP, 3′-deoxy-3,4-didehydro-UTP]
substrate for POLG1 (in words) [6]: poor substrates
chain termination of RNA synthesis (in words) [7]: caused chain termination of RNA synthesis
incorporation into RNA by SARS-Cov2 RdRp (in words) [8]: incorporated onto RNA as UTP analog

CCC(CC)COC(=O)[C@H](C)N[P@](=O)(OCC1=CC(O)C(n2cnc3c(=O)[nH]c(N)nc32)O1)Oc1ccccc1 (stereo partly drawn) [AB23032]
EC50 (JC virus (JCV) [1]): > 100 µM
EC90 (JC virus (JCV) [1]): > 100 µM
Activity (JC virus (JCV) [1]): NA (NA (Not Active) SI50 = 0-3.9)
EC50 (HCMV AD169): > 100 µM
Activity [2]: NA (key: NA (Not Active) SI50 = 0-3.9; MOD (Moderately Active) SI50 = 4-9.9; HI (Highly Active) SI50 = ≥10)
CC50 [2]: > 150 µM
EC50 [2]: 77.2 µM
EC90 [2]: 149 µM
Activity [3]: NA (key: NA (Not Active) SI50 = 0-3.9; MOD (Moderately Active) SI50 = 4-9.9; HI (Highly Active) SI50 = ≥10)
CC50 [3]: > 150 µM
EC50 [3]: > 150 µM
EC90 [3]: > 150 µM
CC50 (MRC-5 cells): > 100 µM
CC50 (JC virus (JCV) [4]): > 100 µM

Nc1ccn([C@@H]2OC(CO)=C[C@H]2O)c(=O)n1 [AB21650, 3′-deoxy-3′,4′-didehydro cytidine]
CC50 (TCRV [9]; African green monkey): > 2000 µM
SI (TCRV [9]; TCRV, SI = CC50/EC50): 0
EC50 (dengue virus-2 (DV-2) [10]): > 2000 µM
EC50 (Powassan virus (POWV) [11]): > 2000 µM
EC50 (SARS-CoV-2 [12]): > 2000 µM
EC50 [13]: > 2000 µM
EC50 [14]: > 2000 µM
EC50 (Zika virus [15]): > 2000 µM
SI (SARS-CoV-2 [16]): 0
CC50 (Zika virus [17]; African green monkey): > 2000 µM
SI (Zika virus [17]; Zika, SI = CC50/EC50): 0
EC50 (poliovirus-1 (POV-1) [18]): > 2000 µM
EC50 (enterovirus-68 (EV-68) [19]): 910 µM
CC50 (in vitro [20]): > 2000 µM
CC50 ([21]; African green monkey): > 2000 µM
SI ([21]; JEV, SI = CC50/EC50): 0
SI (dengue virus-2 (DV-2) [22]): 0
SI (Powassan virus (POWV) [23]): 0
EC50 (Influenza B [24]): > 2000 µM
SI (Influenza B [25]): 0
CC50 (Influenza B [25]; dog): > 2000 µM
SI (poliovirus-1 (POV-1) [26]; POV-1, SI = CC50/EC50): 0
CC50 (poliovirus-1 (POV-1) [26]; [48]): > 2000 µM
EC50 [27]: > 2000 µM
CC50 (RSV [28]; African green monkey): > 2000 µM
SI (RSV [28]; RSV, SI = CC50/EC50): 0
SI ([29]; VEEV, SI = CC50/EC50): 0
CC50 [29, 48]: > 2000 µM
CC50 (West Nile virus (WNV) [30]; African green monkey): > 2000 µM
SI (West Nile virus (WNV) [30]; WNV, SI = CC50/EC50): 0
CC50 (Yellow fever virus (YFV) [31]; Huh7 cells without virus, test compounds): > 2000 µM
SI (Yellow fever virus (YFV) [31]; YFV, SI = CC50/EC50): 0
SI (influenza A(H1N1) [32]; H1N1): 0
CC50 (influenza A(H1N1) [32]; dog): > 2000 µM
SI (enterovirus-68 (EV-68) [33]; EV-68, SI = CC50/EC50): 2
CC50 (enterovirus-68 (EV-68) [33]; human): 1800 µM
EC50 (West Nile virus (WNV) [34]): > 2000 µM
EC50 (TCRV [35]): > 2000 µM
CC50 (influenza A(H5N1) [36]; MDCK cells without virus, test compounds): > 2000 µM
SI (influenza A(H5N1) [36]; influenza A(H5N1), SI = CC50/EC50): 0
EC50 (adenovirus-5 (Ad5) [37]): > 2000 µM
CC50 (in vitro [38]): > 2000 µM
SI (SARS-CoV [39]; SARS-CoV, SI = CC50/EC50): 0
CC50 (SARS-CoV [39]; [48]): > 2000 µM
SI ([40]; RVFV, SI = CC50/EC50): 0
CC50 [40, 48]: > 2000 µM
CC50 (in vitro [41]): > 2000 µM
EC50 (SARS-CoV [42]): > 2000 µM
EC50 (influenza A(H5N1) [43]): > 2000 µM
EC50 (RSV [44]): > 2000 µM
EC50 (influenza A(H1N1) [45]): > 2000 µM
EC50 (Yellow fever virus (YFV) [46]): > 2000 µM
SI (adenovirus-5 (Ad5) [47]; Ad5, SI = CC50/EC50): 0
CC50 (adenovirus-5 (Ad5) [47]; human): > 2000 µM
